Measurements as given in paper PMC9321663, “The DevTox Germ Layer Reporter Platform: An Assay Adaptation of the Human Pluripotent Stem Cell Test” (Toxics, 2022).
Read-outs that look alike come from different tables or passages of the source.

Experiments:
[1] = test system: SOX17 (endoderm marker) in RUES2-GLR cells; test: DevTox GLR-Endo assay: decrease in percent SOX17-positive cells (AEID 3094, Sox17_dn); settings: for Hit Call: Table S2, SOX17-positive cells, cutoff 3*bmad; for DevTox ACC: Table S2, percent SOX17-positive cells; for HIT−CALL: tcpl plot AEID3094, COFF 20.3
How it was run: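 Readouts are loss of SOX17-positive fraction and reduced cell number in endoderm-differentiating RUES2-GLR cells after 48 h of chemical exposure. Controls: undifferentiated and differentiated cells, 0.2% DMSO, and 1 µM SB431542; at least four biological replicates.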

[2] = DevTox GLR-Endo assay: decrease in total cell count, cytotoxicity (AEID 3098, CellCount_dn); settings: human
[3] = test system: RUES2-GLR cells; test: as above; settings: for Emax: Homo sapiens, read-out: Cell Count % Max Inhibition
[4] = test system: SOX17 (endoderm marker) in RUES2-GLR cells; test: DevTox GLR-Endo assay: increase in percent SOX17-positive cells (AEID 3093, Sox17_up); format: cell-based, human; settings: for Emax: Homo sapiens; for HIT−CALL: tcpl plot AEID3093, COFF 20.3
Description: (§1) The total test chemical incubation period was 48 h.
(§2) (Supplementary Materials).

[5] = test system: BRA (mesoderm marker) in RUES2-GLR cells; test: DevTox GLR-Endo assay: increase in percent BRA-positive cells (AEID 3096, Bra_up); format: cell-based, human; settings: for HIT−CALL: tcpl plot AEID3096, COFF 0.774; for MAX_MEAN: tcpl plot AEID3096, maximum mean response; for MAX_MED: tcpl plot AEID3096, maximum median response
Description: as §1, §2

[6] = test system: SOX17 in H9 human ESC line; settings: SOX17 half-maximal inhibition concentration; read-out: hPST IC50; cited from earlier work
[7] = test system: H9 human ESC line; settings: cited from earlier work
[8] = cited from earlier work; for Development Toxicant Classification: Table S2; for Classification: developmental toxicant classification (Teratogen / Non-Teratogen) of reference and training chemicals, ref DOI per chemical: 10.1093/toxsci/kft239, 10.1093/toxsci/kfaa014, 10.1177/026119290203000204, 10.1038/s41598-020-59542-x; for DT Class.: developmental toxicant classification, chemicals common with hPST
[9] = test system: SOX2 (ectoderm and pluripotency marker) in RUES2-GLR cells; test: DevTox GLR-Endo assay: increase in percent SOX2-positive cells (AEID 3095, Sox2_up); settings: for MAX_MEAN: tcpl plot AEID3095, maximum mean response; for MAX_MED: tcpl plot AEID3095, maximum median response; for AC50 / Emax: Homo sapiens; for AC50: read-out: ga (winning model); for Emax: read-out: tp (winning model);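 on all read-outs here: cells exposed to test chemicals for 48 h in total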
Description: RUES2-GLR cells were seeded 24 h prior to differentiation initiation into vitronectin-coated 384-well CellCarrier Ultra plates (10.6 mm^2/well) (Perkin Elmer, Waltham, MA, USA). Vitronectin (0.5 µg/cm^2)-coated plates were prepared and stored at 4 °C, wrapped in parafilm, for less than seven days and incubated at room temperature for one hour prior to cell seeding. […] Cells were dispensed into 20 µL coating solution using a Certus FLEX Micro Dispenser (Fritz Gyger, Gwatt, Switzerland) with a 0.45 µm valve to a final volume of 100 µL and density of 2.8 × 10^3 cells per well.
Following a 24 h post-seeding incubation period (Time = 0 h) (Figure 3A), directed endoderm differentiation was initiated with the PSC Definitive Endoderm Induction kit (Gibco, Waltham, MA, USA). […] A target dilution series (0.002–200 µM) was generated by dispensing variable nanoliter volumes of test chemical and backfilling with a complementary volume of DMSO using Echo Cherry Pick software (v.1.6.2). Wells were backfilled with 50 µL of induction medium using a Certus FLEX Micro Dispenser with 0.45 µm valves. Test compound treatment plates were mixed on a Multi-Microplate Genie mixer at 700 rpm for 10 min and subsequently incubated for two hours in a humidified atmosphere at 37 °C with 5% CO2. Each chemical treatment (0 h–Medium A; 24 h–Medium B) were prepared the day of treatment. At 0 h, cell culture medium was aspirated from the assay plate at a rate of 1 µL/s and 40 µL of Medium A ± test chemical applied using a CyBio FeliX automated liquid handler (Analytik Jena, Jena, Germany). At 24 h, conditioned cell culture medium was aspirated and 40 µL of Medium B ± test chemical was applied. At 48 h, cells were prepared for high-content image acquisition by fixation and nuclear staining. The total test chemical incubation period was 48 h. For fixation, a 4% paraformaldehyde (PFA) solution was achieved by adding 40 µL of 8% PFA directly to cell culture medium using a CyBio FeliX liquid handler. […] Following an additional 30 min incubation period at room temperature, staining solution was aspirated, 50 µL of DPBS was added, and plate sealed with MicroAmp Optical Adhesive Film (Applied Biosystems, Waltham, MA, USA).
Images were acquired within 12 h post-fixation using an Opera Phenix High-Content Screening System (Perkin Elmer, Waltham, MA, USA). […] Cell identification and mean biomarker fluorescent intensities were calculated using Harmony image analysis software (Perkin Elmer, Waltham, MA, USA). Cell nuclei were identified using the object classifying algorithm C of the software with border objects excluded using the “Remove Border Objects” feature. Mean cell biomarker intensity statistics were gathered from each object and exported for further analysis using a custom script in Python version 3.7.4 [61] […] For each plate, pluripotent-negative control wells were used to establish baseline intensity values and a cutoff threshold for determining SOX17 and BRA biomarker-positive cells. Endoderm differentiated positive control wells were used to establish baseline intensity values and a cutoff threshold for SOX2-positive cells. Cells with a mean intensity five times the baseline median absolute deviation (5*bmad) above the median cell intensity for plate-based control population technical replicates were considered positive. Well-based cell counts, reflected by the sum of total counted objects from all fields, were used to calculate the percent responders for each respective biomarker and evaluate cytotoxicity. Well-level results were exported for data modeling in the ToxCast Pipeline.
The ToxCast Pipeline R package (tcpl v.2.0.2) was used to normalize, fit, and qualify concentration-response screening data [63].

[10] = Homo sapiens, 48 h, read-out: DevTox-GLR Endo AC50 (µM), SOX17 half-maximal activity concentration, 48 h exposure
[11] = Homo sapiens, read-out: DevTox % Max Inhibition
[12] = Homo sapiens, read-out: MAX_MEAN
[13] = Homo sapiens, read-out: MAX_MED
[14] = Homo sapiens, read-out: ga (winning model), tcpl plot AEID3094, gain parameter of winning curve fit (log concentration, µM axis), hit calls only (converted)
[15] = Homo sapiens, read-out: tp (winning model)
[16] = RUES2-GLR cells under directed endoderm differentiation
[17] = tcpl plot AEID3093, maximum mean response, read-out: MAX_MEAN
[18] = tcpl plot AEID3093, maximum median response, read-out: MAX_MED
[19] = cytotoxicity half-maximal concentration

Row | Structure (SMILES) | AC50 [1, 10] [µM] | Emax [1, 11] [%] | Emax [1, 12] [%] | Emax [1, 13] [%] | AC50 [1, 14] [µM] | Emax [1, 15] [%] | Hit Call [1] | DevTox ACC ([1]; 48 h exposure) [µM] | HIT−CALL [1] | Emax [3] [%] | Emax [4, 17] [%] | Emax [4, 18] [%] | HIT−CALL [4] | IC50 [6] [µM] | hPST TC50 [7, 19] [µM] | hPST TC50 ([7]; hPST cytotoxicity) [µM] | Development Toxicant Classification [8] | Classification [8] | MAX_MEAN [9] [Percent Activity] | MAX_MED [9] [Percent Activity] | further results
1 | C[C@](N)(Cc1ccc(O)c(O)c1)C(=O)O [Methyldopa] | 113 | 23.5 | 19.9 | 23.5 | 112 | 30.9 | Positive | 217.84 | 1 | 10.2 | 13.8 | 12.9 | 0 | 272 | 462 | 462 | Negative | Non-Teratogen | 4.03 | 0.534 | hit call designation (in words) ([1]; DevTox GLR-Endo prediction against developmental toxicant classification): false positive; AC50 ([1]; read-out: DevTox-GLR Endo AC50, SOX17 half-maximal activity concentration, 48 h exposure): 113 µM; CC50 at 48 h [2, 16]: > 200 µM; Cell Count ACC ([3]; human, 48 h): >200 µM; HIT−CALL [5]: 0; MAX_MEAN [5]: 0.823 Percent Activity; MAX_MED [5]: 0.851 Percent Activity; DT Class. [8]: Neg
2 | Cc1nc2sccn2c(=O)c1CCN1CCC(=C(c2ccc(F)cc2)c2ccc(F)cc2)CC1 [Ritanserin] | 9.98 | 102 | 102 | 102 | 9.98 | 102 | Positive | 8.389 | 1 | 94.7 | -0.644 | -1.38 | 0 | 7.3 | 27 | 27 | Positive | Teratogen | 2.33 | 1.82 | CC50 at 48 h [2, 16]: 9.47 µM; Cell Count ACC ([3]; Table S2, 48 h exposure): 6.426 µM; HIT−CALL [5]: 1; MAX_MEAN [5]: 2.65 Percent Activity; MAX_MED [5]: 3.04 Percent Activity; DT Class. [8]: Pos; AC50 [9]: 158 µM; Emax [9]: 4.15%
3 | CC1(C)S[C@@H]2[C@H](NC(=O)Cc3ccccc3)C(=O)N2[C@H]1C(=O)O [Penicillin G] | > 200 | 10.3 | 12.2 | 10.3 |  |  | Negative | >200 | 0 | 13.3 | 13.2 | 12.4 | 0 | > 400 | >400 | > 400 |  |  | 2.17 | 0.88 | CC50 at 48 h [2]: > 200 µM; Cell Count ACC ([3]; human, 48 h): >200 µM; HIT−CALL [5]: 0; MAX_MEAN [5]: 0.857 Percent Activity; MAX_MED [5]: 0.92 Percent Activity
4 | CNC(=O)c1cc(Oc2ccc(NC(=O)Nc3ccc(Cl)c(C(F)(F)F)c3)cc2)ccn1 [Sorafenib] | 0.62 | 102 | 102 | 102 | 0.618 | 101 | Positive | 0.5004 | 1 | 95.8 | 8.73 | 9.19 | 0 | < 2 | <2 | < 2 | Positive | Teratogen | 13.6 | 11.9 | CC50 at 48 h [2, 16]: 0.61 µM; Cell Count ACC ([3]; Table S2, 48 h exposure): 0.4993 µM; DT Class. [8]: Pos; AC50 [9]: 0.748 µM; Emax [9]: 8.9%
5 | O=c1[nH]c(=O)n([C@H]2C[C@H](O)[C@@H](CO)O2)cc1Br [5-Bromo-2’-deoxyuridine] | 0.55 | 102 | 102 | 102 | 0.548 | 101 | Positive | 0.4591 | 1 | 87.6 | -2.88 | -2.98 | 0 | 0.2 | 3.4 | 3.4 | Positive | Teratogen | 2.12 | 2.23 | SOX17 ACC relative to cytotoxic concentration (in words) [1]: below cytotoxic concentrations; CC50 at 48 h [2]: 9.37 µM; Cell Count ACC ([3]; human, 48 h): 3.994 µM; DT Class. [8]: Pos; AC50 [9]: 13.2 µM; Emax [9]: 2.13%
